Experimental findings from US8546389B2 (priority 2010, dated 2013) are described below.

The target in one assay is 1b (BK) NS5bΔ21 (Hepatitis C virus genotype 1b (isolate BK) (HCV), UniProt P26663). In words: HCV polymerase inhibition assay, genotype 1b. Format: biochemical, HCV genotype 1b (BK). A digest of the protocol:
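Both genotype 1b and 3a enzymes assayed identically: ^33P-GTP incorporation on poly(rC) template, GTP at Km, 50 nM NS5bΔ21, pH 7.5 Tris with 5 mM MgCl2 and MnCl2, 1 h reaction ended by cold EDTA. Filter-bound label counted; IC50 fitted by non-linear regression across three-fold dilution series.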

The target of assay [1] is genotype 3a (VRL-69) NS5bΔ21 polymerase (Hepatitis C virus genotype 3a, UniProt Q81258). As to the kind of experiment: HCV polymerase inhibition assay, genotype 3a. In kind it is biochemical, HCV genotype 3a (VRL-69). The settings on record: genotype 3a; read-out: 3a NS5b polymerase IC50. As to the method:
HCV polymerase reactions were carried out using a modified method of Howe et al., Antimicrobial Agents and Chemotherapy 2004 48(12): 4813-4821. Reactions contained a final concentration of, 0.5% DMSO, 50 nM, 1b (BK) NS5bΔ21, 20 mM Tris-HCl pH 7.5, 5 mM MgCl2, 5 mM MnCl2, 3 mM DTT, 0.05% BSA, 0.2 U/μL RNasin, 10 μg/mL Poly(rC) template, GTP (at Km) and 0.05 μCi/μL ^33P-GTP in a total reaction volume of 50 μL. Compounds were tested in a three fold dilution series, for example starting from 50 μM. Reactions were initiated with the addition of GTP and terminated after 1 hour with 50 μL ice cold 0.2 M EDTA. Terminated reactions were transferred to DEAE 96-well filter plates, unincorporated nucleotides washed from the filters and 50 μL scintillation fluid added prior to reading on a scintillation counter. Similarly, a genotype 3a (VRL-69) NS5bΔ21 polymerase enzyme assay was conducted using essentially the same method.
The compound concentration that reduced ^33P-GTP incorporation by 50% (IC50) was calculated using non-linear regression.

Assay [2] concerns genotype 1b (Con 1) subgenomic replicon cell line. In words: HCV replicon assay, genotype 1b (Renilla luciferase). In kind it is cell-based, HCV genotype 1b (Con 1). The settings on record: Hepatitis C virus, genotype 1b replicon. A digest of the protocol:
(§1)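 Subgenomic replicon cells expressing Renilla luciferase (1b Con1; 1a and 2a lines by the same method) seeded at 7000 cells/well (5000 for 2a) without G418, exposed to 3-fold compound dilutions for 72 h at 37 °C. Luciferase activity measured; EC50 by non-linear regression.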
A general note: Replicon systems follow genome replication, usually without infectious particles.

Assay [3] concerns subgenomic genotype 1a replicon cell line. In words: HCV replicon assay, genotype 1a. In kind it is cell-based, HCV genotype 1a. The settings on record: Hepatitis C virus. A digest of the protocol: as §1
For assay [4], the system named is subgenomic genotype 2a replicon cell line. In words: HCV replicon assay, genotype 2a. Format: cell-based, HCV genotype 2a. The settings on record: Hepatitis C virus. A digest of the protocol:
as §1

Assay [5] has as its system genotype 1b (Con 1) subgenomic replicon cell line. As to the kind of experiment: Combination studies in replicon cells (MacSynergy II). Format: cell-based, HCV genotype 1b (Con 1). Here is the method:
A genotype 1b (Con 1) subgenomic replicon cell line based on Blight et al., Science 2000 290: 1972-1974, modified to express a Renilla luciferase reporter gene was used to assess synergy of test compounds. Cell cultures were maintained in a sub-confluent state in DMEM with glutamine, 10% heat-inactivated foetal bovine serum (FBS) and G418 (Geneticin®).
For assay, cells were seeded at a density of 7000 cells/well into 96 well tissue culture trays in culture media lacking G418. The compound concentration that reduced luciferase activity by 50% (EC50) was determined independently for each compound and used to set the range of concentrations for the combination experiments. […] The ratio of the 2 compounds tested remained fixed across the titration range. […] After 72 hours incubation at 37° C. and 5% CO2, Renilla luciferase activity was quantified via the Promega Renilla Luciferase Assay System.
Results were analysed and levels of synergy assessed via generation of 3D synergy plots using MacSynergy™ II (Prichard, M. N., K. R. Aseltine, and C. Shipman, Jr. 1993. MacSynergy II. Version 1.0. User's manual. University of Michigan, Ann Arbor.). […] Compound 175 was selected as a representative example of the compounds of the invention for synergistic studies.

SMILES strings stand for the structures. Like-named read-outs stand apart in the source and are kept apart here.

Sequence of 1b (BK) NS5bΔ21 (P26663 2420-2989): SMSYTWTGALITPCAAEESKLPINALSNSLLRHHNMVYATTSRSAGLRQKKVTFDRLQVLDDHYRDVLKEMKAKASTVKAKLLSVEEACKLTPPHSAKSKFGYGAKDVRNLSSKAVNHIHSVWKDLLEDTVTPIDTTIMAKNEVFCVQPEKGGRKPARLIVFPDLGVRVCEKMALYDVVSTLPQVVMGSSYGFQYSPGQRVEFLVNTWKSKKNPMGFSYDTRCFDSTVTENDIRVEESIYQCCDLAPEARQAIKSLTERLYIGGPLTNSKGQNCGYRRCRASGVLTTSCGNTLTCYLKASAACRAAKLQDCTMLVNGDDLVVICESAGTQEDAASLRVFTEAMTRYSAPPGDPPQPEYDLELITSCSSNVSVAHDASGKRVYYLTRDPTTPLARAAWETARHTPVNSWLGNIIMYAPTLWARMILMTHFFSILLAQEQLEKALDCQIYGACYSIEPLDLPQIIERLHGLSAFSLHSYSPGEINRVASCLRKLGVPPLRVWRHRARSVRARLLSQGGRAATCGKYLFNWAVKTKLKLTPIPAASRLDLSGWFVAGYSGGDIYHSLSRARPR
Sequence of genotype 3a (VRL-69) NS5bΔ21 polymerase (Q81258 whole entry, looked up, stated change not applied): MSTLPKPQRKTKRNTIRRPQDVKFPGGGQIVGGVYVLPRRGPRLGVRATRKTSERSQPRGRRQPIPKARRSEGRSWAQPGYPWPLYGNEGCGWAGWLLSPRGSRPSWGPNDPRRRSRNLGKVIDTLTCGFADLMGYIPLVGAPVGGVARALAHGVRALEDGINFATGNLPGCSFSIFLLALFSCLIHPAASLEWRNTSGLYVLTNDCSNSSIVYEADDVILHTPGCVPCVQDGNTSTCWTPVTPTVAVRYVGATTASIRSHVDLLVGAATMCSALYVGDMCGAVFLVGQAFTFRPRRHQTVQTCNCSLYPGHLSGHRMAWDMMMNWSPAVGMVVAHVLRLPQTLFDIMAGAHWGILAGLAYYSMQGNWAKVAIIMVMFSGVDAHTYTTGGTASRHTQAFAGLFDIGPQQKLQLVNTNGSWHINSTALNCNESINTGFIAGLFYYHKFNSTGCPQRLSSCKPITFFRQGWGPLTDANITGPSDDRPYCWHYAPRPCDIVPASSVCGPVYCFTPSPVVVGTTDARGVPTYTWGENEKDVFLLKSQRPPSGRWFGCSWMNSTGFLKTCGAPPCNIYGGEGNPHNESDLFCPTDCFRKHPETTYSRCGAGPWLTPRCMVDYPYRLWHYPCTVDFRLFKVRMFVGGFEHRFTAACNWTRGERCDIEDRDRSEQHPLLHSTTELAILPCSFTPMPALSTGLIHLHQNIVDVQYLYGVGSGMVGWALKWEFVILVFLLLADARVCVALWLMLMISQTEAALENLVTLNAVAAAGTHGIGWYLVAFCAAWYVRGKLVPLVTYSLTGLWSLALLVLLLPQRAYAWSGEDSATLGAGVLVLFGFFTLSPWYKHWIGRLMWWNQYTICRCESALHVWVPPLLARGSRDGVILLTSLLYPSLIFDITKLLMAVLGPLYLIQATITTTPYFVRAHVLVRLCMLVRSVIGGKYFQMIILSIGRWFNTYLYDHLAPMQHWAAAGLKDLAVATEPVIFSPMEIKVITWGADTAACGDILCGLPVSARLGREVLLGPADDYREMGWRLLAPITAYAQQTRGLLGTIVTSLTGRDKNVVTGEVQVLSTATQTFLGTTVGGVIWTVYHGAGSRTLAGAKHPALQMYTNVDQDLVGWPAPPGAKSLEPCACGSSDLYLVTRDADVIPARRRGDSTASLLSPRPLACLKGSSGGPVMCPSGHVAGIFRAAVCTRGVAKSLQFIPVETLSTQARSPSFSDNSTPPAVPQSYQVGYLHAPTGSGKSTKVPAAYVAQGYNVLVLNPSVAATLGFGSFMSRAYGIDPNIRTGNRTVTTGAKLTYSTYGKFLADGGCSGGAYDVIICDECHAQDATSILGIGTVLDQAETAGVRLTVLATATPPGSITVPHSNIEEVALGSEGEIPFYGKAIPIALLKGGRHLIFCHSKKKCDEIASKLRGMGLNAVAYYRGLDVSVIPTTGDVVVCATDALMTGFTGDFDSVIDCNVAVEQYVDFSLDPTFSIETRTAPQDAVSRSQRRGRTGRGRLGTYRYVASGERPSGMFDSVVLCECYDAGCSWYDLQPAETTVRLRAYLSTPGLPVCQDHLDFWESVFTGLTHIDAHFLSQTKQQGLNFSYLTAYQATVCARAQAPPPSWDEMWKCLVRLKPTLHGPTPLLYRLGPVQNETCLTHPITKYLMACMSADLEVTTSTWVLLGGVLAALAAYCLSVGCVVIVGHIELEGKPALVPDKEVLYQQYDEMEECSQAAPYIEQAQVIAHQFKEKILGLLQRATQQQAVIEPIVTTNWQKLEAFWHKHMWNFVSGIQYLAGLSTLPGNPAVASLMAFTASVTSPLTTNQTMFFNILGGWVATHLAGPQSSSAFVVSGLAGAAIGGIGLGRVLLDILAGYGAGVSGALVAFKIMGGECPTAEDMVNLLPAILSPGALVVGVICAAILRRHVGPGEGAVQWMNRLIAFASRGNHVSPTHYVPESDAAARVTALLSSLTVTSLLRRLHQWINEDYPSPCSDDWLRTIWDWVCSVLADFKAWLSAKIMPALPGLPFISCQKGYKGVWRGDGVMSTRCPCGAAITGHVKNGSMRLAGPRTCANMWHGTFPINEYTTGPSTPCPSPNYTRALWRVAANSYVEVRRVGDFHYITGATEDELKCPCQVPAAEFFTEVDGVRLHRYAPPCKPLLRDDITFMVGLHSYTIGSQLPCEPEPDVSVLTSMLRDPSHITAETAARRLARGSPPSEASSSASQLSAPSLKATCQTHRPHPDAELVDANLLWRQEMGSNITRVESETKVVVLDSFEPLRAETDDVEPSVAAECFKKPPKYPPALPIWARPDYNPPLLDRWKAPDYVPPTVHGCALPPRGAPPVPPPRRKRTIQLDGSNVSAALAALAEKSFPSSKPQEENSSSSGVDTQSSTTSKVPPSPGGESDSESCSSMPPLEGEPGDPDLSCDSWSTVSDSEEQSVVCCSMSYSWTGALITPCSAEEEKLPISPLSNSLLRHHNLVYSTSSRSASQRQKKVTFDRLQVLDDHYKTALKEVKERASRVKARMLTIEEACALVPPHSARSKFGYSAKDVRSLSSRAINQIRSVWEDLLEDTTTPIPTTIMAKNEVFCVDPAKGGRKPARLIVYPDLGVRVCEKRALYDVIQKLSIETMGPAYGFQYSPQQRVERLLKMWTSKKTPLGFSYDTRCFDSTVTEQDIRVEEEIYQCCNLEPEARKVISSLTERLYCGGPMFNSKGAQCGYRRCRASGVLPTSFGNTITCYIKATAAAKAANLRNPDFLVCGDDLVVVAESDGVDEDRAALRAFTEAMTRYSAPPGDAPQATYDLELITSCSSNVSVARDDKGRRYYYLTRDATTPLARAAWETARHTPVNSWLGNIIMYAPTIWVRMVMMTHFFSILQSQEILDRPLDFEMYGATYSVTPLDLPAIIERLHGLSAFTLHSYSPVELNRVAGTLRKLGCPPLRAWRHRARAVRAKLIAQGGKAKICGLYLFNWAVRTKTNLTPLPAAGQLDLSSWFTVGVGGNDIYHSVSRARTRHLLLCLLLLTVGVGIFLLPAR

A word on the IC50: it is the concentration that gives 50% inhibition. The EC50 is the concentration that produces a half-maximal response. As to `CCN(c1cc2nn(-c3ccc(Cl)cc3)c(C(=O)NC)c2cc1C1CC1)S(C)(=O)=O` [Compound 175], the half-inhibitory concentration (IC50) at 1b (BK) NS5bΔ21 (1b (BK) NS5bΔ21, 33P-GTP incorporation, read-out: 1b polymerase IC50 (range class)) was less than 990 nM; on 1b (BK) NS5bΔ21 (genotype 1b, read-out: 1b NS5b polymerase IC50) it was 100 nM; in assay [1], 30 nM. Further, the 50% effective concentration (EC50) was less than 990 nM in assay [2] (72 hours, luciferase, read-out: genotype 1b EC50 (range class)); 60 nM in assay [2] (read-out: Replicon 1b EC50); 260 nM in assay [3]; 80 nM in assay [4]. In assay [5] (with 4-amino-7-(2-C-methyl-β-D-ribofuranosyl)-pyrrolo[2,1-f][1,2,4]triazine, FIG. 1, 95% confidence intervals), the “synergy in combination with a nucleoside NS5b inhibitor” value is on record as “statistically significant synergy”. The “synergy in combination with an NS5a inhibitor” value in assay [5] (with BMS-790052, daclatasvir, FIG. 3, 95% confidence intervals) was “statistically significant synergy”. Also, the “synergy in combination with a NS3/4a protease inhibitor” value in assay [5] (with VX-950, telaprevir, FIG. 2, 95% confidence intervals) is recorded as “statistically significant synergy”.
